Test results published in US9138447B2, “Antimicrobial agent and method for the production thereof” (UNIVERSITY COLLEGE CARDIFF CONSULTANTS LTD., priority 2008, dated 2015).

System: methicillin resistant Staphylococcus aureus (MRSA)
Test: Growth inhibition of MRSA
Format: cell-based
Description: Mupirocin (Pseudomonic acid A, or Bactroban) is the frontline topical antibiotic used to combat skin infections with gram positive bacteria and is also used in the eradication of MRSA from infected people. It was originally produced as Bactroban by GlaxoSmithKline, but now it is available generically within a number of different commercial formulations. MRSA strain 52 is susceptible to both the P. fluorescens mupirocin (Panel A) and Vietnamycin (BVAS; Panel B). However, MRSA strain 49 is representative of a number of emerging S. aureus strains that are resistant to mupirocin (Panel C).

`C/C(=C\C(=O)OCCCCCCCCC(=O)O)C[C@@H]1OC[C@H](C[C@@H]2O[C@H]2[C@@H](C)[C@H](C)O)[C@@H](O)[C@H]1O` [mupirocin, Mupirocin] was tested, and the “Growth inhibition of mupirocin resistant MRSA (strain 49)” value (mupirocin resistant strain) was “resistant” and the “Growth inhibition of MRSA strain 52” value (mupirocin susceptible strain, producer bacterium overlay) was “susceptible”.
